One data set deals with WI-38. Put plainly: Antiproliferative activity against human WI-38 cells incubated for 72 hrs by MTT assay. As to conditions: WI-38, 72 h.
The subject of another data set is HL-60. Put plainly: Antiproliferative activity against human HL60 cells incubated for 72 hrs by CCK8 assay. As to conditions: HL-60, 72 h. (Tetrazolium dyes change colour on reduction, which living cells bring about.)
The next data set relates to HT-29. Put plainly: Antiproliferative activity against human HT29 cells incubated for 72 hrs by MTT assay. As to conditions: HT-29, 72 h.
Data set [1] concerns the target T1, Bromodomain-containing protein 4 (Homo sapiens, UniProt O60885). The data set is described as follows: Inhibition of BRD4 BD1 (unknown origin) preincubated for 15 mins followed by peptide addition and measured after 60 mins by TR-FRET assay. In general terms: TR-FRET usually uses a lanthanide donor and a delayed reading to cut background.
Data set [2] has as its target T2, Bromodomain-containing protein 2 (Homo sapiens, UniProt P25440). The data set is described as follows: Inhibition of BRD2 BD2 (unknown origin) preincubated for 15 mins followed by peptide addition and measured after 60 mins by TR-FRET assay.
For data set [3], the target named is T1, Bromodomain-containing protein 4. Put plainly: Inhibition of BRD4 BD2 (unknown origin) preincubated for 15 mins followed by peptide addition and measured after 60 mins by TR-FRET assay.
For data set [4], the target named is T2, Bromodomain-containing protein 2. Put plainly: Inhibition of BRD2 BD1 (unknown origin) preincubated for 15 mins followed by peptide addition and measured after 60 mins by TR-FRET assay.
A short description of data set [5]: Half life in Wistar rat at 15 mg/kg, po measured up to 24 hrs by LC-MS/MS analysis. The data set is classed as ADME, organism-based. The note with it: in vivo.
Data set [6] is described as follows: AUC(0 to infinity) in Wistar rat at 15 mg/kg, po measured up to 24 hrs by LC-MS/MS analysis. The data set is classed as ADME, organism-based. The arrangement: route oral, dose 15 mg/kg, time <=24. The note with it: in vivo.
Data set [7] is described as follows: AUC(0 to t) in Wistar rat at 15 mg/kg, po measured up to 24 hrs by LC-MS/MS analysis. The data set is classed as ADME, organism-based. More on the design: route oral, dose 15 mg/kg, time <=24. As to conditions: in vivo.
Data set [8] can be described thus: AUC(0 to infinity) in Wistar rat at 5 mg/kg, iv measured up to 24 hrs by LC-MS/MS analysis. Type of data set: ADME, organism-based. More on the design: route intravenous, dose 5 mg/kg, time <=24. The note with it: in vivo.
The nature of data set [9]: AUC(0 to t) in Wistar rat at 5 mg/kg, iv measured up to 24 hrs by LC-MS/MS analysis. The data set is classed as ADME, organism-based. The note with it: in vivo. More on the design: route intravenous, dose 5 mg/kg, time <=24.
The nature of data set [10]: Apparent clearance during terminal phase in Wistar rat at 5 mg/kg, iv measured up to 24 hrs by LC-MS/MS analysis. The note with it: in vivo. Type of data set: ADME, organism-based.
Data set [11] is described as follows: Tmax in Wistar rat at 15 mg/kg, po measured up to 24 hrs by LC-MS/MS analysis. Type of data set: ADME, organism-based. As to conditions: in vivo.
The nature of data set [12]: Apparent clearance during terminal phase in Wistar rat at 15 mg/kg, po measured up to 24 hrs by LC-MS/MS analysis. As to conditions: in vivo, read-out: CLz/F (converted). Type of data set: ADME, organism-based.
A short description of data set [13]: Half life in Wistar rat at 5 mg/kg, iv measured up to 24 hrs by LC-MS/MS analysis. Type of data set: ADME, organism-based. As to conditions: in vivo.
Data set [14] in a line: Oral bioavailability in Wistar rat at 15 mg/kg measured up to 24 hrs by LC-MS/MS analysis. Type of data set: ADME, organism-based. The note with it: in vivo.
Data set [15] can be described thus: Cmax in Wistar rat at 15 mg/kg, po measured up to 24 hrs by LC-MS/MS analysis. Type of data set: ADME, organism-based. More on the design: route oral, dose 15 mg/kg, time <=24. As to conditions: in vivo.

T2 sequence (P25440 whole entry): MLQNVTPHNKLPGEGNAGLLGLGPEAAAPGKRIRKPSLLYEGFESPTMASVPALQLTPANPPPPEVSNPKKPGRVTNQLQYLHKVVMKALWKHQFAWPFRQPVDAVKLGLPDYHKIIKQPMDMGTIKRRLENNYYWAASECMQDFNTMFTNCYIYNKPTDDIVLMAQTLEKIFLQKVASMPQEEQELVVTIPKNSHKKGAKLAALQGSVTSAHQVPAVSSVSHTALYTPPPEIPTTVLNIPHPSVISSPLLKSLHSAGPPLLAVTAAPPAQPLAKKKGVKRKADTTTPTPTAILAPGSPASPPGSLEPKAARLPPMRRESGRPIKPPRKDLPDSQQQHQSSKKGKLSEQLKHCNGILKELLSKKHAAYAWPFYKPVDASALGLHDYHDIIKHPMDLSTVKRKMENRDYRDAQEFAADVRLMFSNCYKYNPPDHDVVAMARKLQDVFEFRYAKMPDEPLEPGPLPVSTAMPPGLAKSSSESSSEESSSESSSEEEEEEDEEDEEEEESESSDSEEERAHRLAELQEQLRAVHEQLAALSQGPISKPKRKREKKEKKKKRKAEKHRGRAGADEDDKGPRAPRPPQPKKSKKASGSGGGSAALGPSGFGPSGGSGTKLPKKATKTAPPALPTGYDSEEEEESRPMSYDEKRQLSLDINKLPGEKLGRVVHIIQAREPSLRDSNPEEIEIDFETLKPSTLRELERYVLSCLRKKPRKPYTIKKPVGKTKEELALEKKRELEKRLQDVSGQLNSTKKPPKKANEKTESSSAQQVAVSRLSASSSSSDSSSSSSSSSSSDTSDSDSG

A word on the IC50: it is the concentration that gives 50% inhibition. Higher therefore signals a need for much substance. As to `Cc1sc2c(c1C)C(c1ccc(Cl)cc1)=N[C@@H](CC(=O)OC(C)(C)C)c1nnc(C)n1-2`, the 50% inhibitory concentration (IC50) in the data set with WI-38 was 4.97 µM; with HL-60 it was 0.16 µM; with HT-29 it was 0.48 µM.
The corresponding values for `COc1ccccc1S(=O)(=O)Nc1ccc2c(c1)CN(C)C(=O)N2` are 19.8 µM, 3.99 µM and 14.7 µM.
Turning to `CC(C)=C1C(=O)Nc2ccc(NS(=O)(=O)c3cccc4c(N(C)C)cccc34)cc21`, in data set [1], the IC50 was found to be 0.208 µM.
Consider `COc1ccc(Br)cc1S(=O)(=O)Nc1ccc2c(c1)C(=C(C)C)C(=O)N2`, for which the IC50 in data set [2] amounted to 0.022 µM; in data set [3] it was 0.021 µM; in data set [4], 0.039 µM; in [1], 0.023 µM.
The compound `COc1ccccc1S(=O)(=O)Nc1ccc2c(c1)C(=C1CCC1)C(=O)N2` registered an IC50 in [1] of 0.026 µM.
Same read-out and setting: in the case of `CC(C)=C1C(=O)Nc2ccc(NS(=O)(=O)C3CCCCC3)cc21` it was 0.022 µM; in that of `COc1ccc(S(=O)(=O)Nc2ccc3c(c2)C(=C(C)C)C(=O)N3)cc1`, 0.094 µM.
The half-life is the time in which the quantity being followed falls by half. A higher half-life goes with slow decline. The AUC(0-inf) is the area under the concentration-time curve extrapolated to infinity. A high value points to more exposure. The AUC(0-t) is the area under the concentration-time curve up to a stated or last time point. Higher therefore signals high exposure. The Tmax is the time at which the peak concentration occurs. As usually defined, the bioavailability is the share of a dose that reaches the circulation, judged against a reference dose that is usually intravenous. High values mean much systemic uptake, low ones little systemic uptake. As usually defined, the Cmax is the peak of the concentration-time curve. Regarding `COc1ccccc1S(=O)(=O)Nc1ccc2c(c1)C(=C(C)C)C(=O)N2`, the IC50 was 0.018 µM in [2] and 0.024 µM in [4]. The half-life was 3.59 h in data set [5] and 1.56 h in data set [13]. Further, the AUC(0-inf) in data set [6] was found to be 14600 ng·h/mL; in [8] it was 7340 ng·h/mL. In addition, the AUC(0-t) at 24 h in data set [7] stood at 14400 ng·h/mL; in [9], 7300 ng·h/mL. In addition, the CLz/F in data set [10] came to 11.3 mL/min/kg. For the same compound, the Tmax in data set [11] turned out to be 1 h. The CL/F in data set [12] was 17.2 mL/min/kg. Also, the bioavailability in data set [14] came out at 66%. Also, the highest level in [15] (Cmax) was 2180 ng/mL.
Consider `CC(C)=C1C(=O)Nc2ccc(NS(=O)(=O)c3cccc4ccccc34)cc21`, for which the IC50 in data set [1] amounted to 0.062 µM.
`COc1ccc(F)cc1S(=O)(=O)Nc1ccc2c(c1)C(=C(C)C)C(=O)N2` had a concentration for half-maximal inhibition (IC50) in data set [1] of 0.034 µM.
As for `COc1ccc(C)cc1S(=O)(=O)Nc1ccc2c(c1)C(=C(C)C)C(=O)N2`, the IC50 in data set [1] stood at 0.03 µM.
Same read-out and setting: in the case of `CC(C)=C1C(=O)Nc2ccc(NS(=O)(=O)c3cc(C)ccc3F)cc21` it was 0.02 µM; in that of `C/C=C1\C(=O)Nc2ccc(NS(=O)(=O)c3ccccc3OC)cc21`, 0.036 µM.
Same read-out and setting: in the case of `CC/C=C1\C(=O)Nc2ccc(NS(=O)(=O)c3ccccc3OC)cc21` it was 0.114 µM; in that of `CC(C)=C1C(=O)Nc2ccc(NS(=O)(=O)c3cc(F)ccc3F)cc21`, 0.056 µM; in that of `CC(C)=C1C(=O)Nc2ccc(NS(=O)(=O)c3ccc4c(c3)CCO4)cc21`, 0.092 µM.
In data set [1], `CC(C)=C1C(=O)Nc2ccc(NS(=O)(=O)c3ccc4ccccc4c3)cc21` came in with an IC50 of 0.203 µM.
As for `CC(C)=C1C(=O)Nc2ccc(NS(=O)(=O)c3ccccc3Br)cc21`, the IC50 in data set [2] is 0.025 µM; in data set [3], 0.043 µM; in data set [4], 0.04 µM; in data set [1], 0.025 µM.

The record behind these values is ChEMBL document CHEMBL4706560, “Design, synthesis and biological evaluation of indole-2-one derivatives as potent BRD4 inhibitors” (Eur J Med Chem, 2020).
